Counter-ions that a name gives are not always drawn.
Key:
human somatic cells [1] = test: Reprogramming efficiency with supplemental inhibitors; format: cell-based; conditions: inhibitor added to induction medium
Protocol: KnockOut™ DMEM supplemented with 10% KSR, 10% FBS, 1% GlutaMAX™, 1% NEAA, 0.055 mM 2-mercaptoethanol, 1% Penicillin-Streptomycin, 50 μg/ml Vc2p, 5 mM LiCl, 1 mM NAM, 100 ng/ml bFGF (Origene) and the small molecules CHIR99021 (10-12 μM), 616452 (10 μM), TTNPB (2 μM), SAG (0.5 μM), ABT-869 (1 μM), Y-27632 (10 μM), JNKIN8 (1 μM), Tranylcypromine (2 μM), 5-Azacytidine (5 μM), UNC0224 (1 μM), Ruxolitinib (1 μM), BIRB796 (2 μM), Dorsormorphin (0.5-1 μM). To enhance the reprogramming efficiency, the CBP/p300 bromodomain inhibitor SGC-CBP30 (2 μM) and Menin-MLL interaction inhibitor VTP50469 were introduced in stage II induction medium.
In several experiments, to testing the reprogramming efficiency after regulate each small molecules, the indicated small molecules were removed from the cocktails. The concentration of the small molecules used to targeting the same pathway or targets were indicated as follow: GSK3 inhibitors (CHIR99021: 3-15 μM; TD114-2: 0.5-2 μM; CHIR98014: 1-3 μM; GSK3βi XV: 0.05-0.2 μM); TGFβ inhibitors (A8301: 0.2-5 μM; SB431542: 2-50 μM; 616452: 10 μM); RA pathway agonists (TTNPB: 0.2-10 μM; Ch55: 1-10 μM; AM580: 0.1-1 μM); Rock inhibitors (Y27632: 2-15 μM; Fasudil: 2-10 μM; HA1100: 2-10 μM; TZV: 2-10 μM); Smoothened agonists (SAG: 0.2-2 μM; Purmorphamine: 0.5-2 μM; Hg-Ag1.5: 0.5-1 μM; Human shh: 20-200 μM); histone demethylation inhibitors (Tranylcypromine: 2-50 μM; GSK2879: 0.02-2 μM; LSD-C76: 0.2-5 μM; S2101: 0.5-5 μM; LSD-2D: 0.2-5 μM; RN-1: 0.2-5 μM); DNMT inhibitors (5-azaC: 2-15 μM; Decitabine: 0.5-10 μM; RG108: 0.5-10 μM); JNK inhibitors (JNK-in-8: 0.2-2 μM; JNK-in-5: 0.5-1 μM; JNK-in-7: 0.2-2 μM; JNK-in-12: 0.2-0.5 μM); CBP/p300 bromodomain inhibitor (SGC-CBP30: 0.5-2 μM; I-CBP112: 0.5-5 μM; GNE272: 0.5-5μM; GNE409:0.5-5μM); Menin-MLL interaction inhibitor (VTP50469: 0.5-2μM; MI3454: 0.5-2μM; WDR5-IN-4: 0.5-2μM). […]

human fibroblasts = test: Conversion of human fibroblasts into monolayer epithelial-like cells; format: cell-based; conditions: added into the combination CHIR99021, 616452 and TTNPB
Protocol: KnockOut™ DMEM (Gibco, 10829018) supplemented with 10% Knockout Serum Replacement (KSR) (Gibco, 10828028), 10% FBS, 1% GlutaMAX™, 1% NEAA, 1% Penicillin-Streptomycin, 0.055 mM 2-mercaptoethanol, 50 μg/ml L-Ascorbic acid 2-phosphate (Vc2P) (Sigma, A8960), 5 mM LiCl (Sigma, L4408), 1 mM Nicotinamide (NAM) (Sigma, 72340), 2 mg/mL AlbuMAX™-II (Gibco, 11021045) and the small molecules CHIR999021 (10 μM), 616452 (10 μM), TTNPB (2 μM), SAG (0.5 μM), ABT-869 (1 μM), Rock inhibitor (Y-27632 (2 μM) or Tzv (2 μM))
(§1) Cells were maintained at 37° C. with 21% 02 and 5% CO2. The induction medium was changed every 3-4 days. HEFs were seeded at a density of 1-1.5×10^4 cells per well of a 12-well plate in 15%. FBS-DMEM medium. Change the medium into stage I induction medium on the next day. For stage I induction, single layer epithelial-like cells would emerge at day 4-6 and approach 80%-100% confluence at day 8-12, then change the medium into stage II induction medium. For stage II induction, multi-layered colonies appeared after 8-12 days treatment and these cell colonies would continually grow larger. After totally 16-20 days' stage II treatment, change the medium into stage III condition. For stage III induction, 8-12 days treatment of stage III medium is required and then change the medium into stage IV condition. For stage IV induction, VPA (500 μM) was included in the first 4 days. Primary hCiPSC colonies would emerge after 6-8 days' treatment. At the end of stage IV, immunofluorescent staining of co-expression of OCT4 and NANOG was used to confirm the generation of primary hCiPSC colonies. Primary hCiPSC colony number was calculated as the number of the compact OCT4 positive colonies. Reprogramming efficiency was calculated as the number of primary hCiPSC colonies divided by the number of input HEFs.

LIN28A = test: Withdrawing individual chemicals from stage I: LIN28A expression; format: cell-based, human; conditions: compound removed from stage I condition
Protocol: (§2) In several experiments, to testing the reprogramming efficiency after removing each small molecules, the indicated small molecules were removed from the cocktails. The concentration of the small molecules used to regulate the same pathway or targets were indicated as follow: GSK3 inhibitors (CHIR99021: 3-15 μM; TD114-2: 0.5-2 μM; CHIR98014: 1-3 μM; GSK3βi XV: 0.05-0.2 μM); RA pathway agonists (TTNPB: 0.5-10 μM; […] AM580: 0.1-1 μM); Rock inhibitors (TZV: 2-10 μM; Y27632: 2-15 μM; Fasudil: 2-10 μM; HA1100: 2-10 μM); TGFβ inhibitors ([…]: 0.1-5 μM; SB431542: 2-50 μM; LY364947: 0.5 μM; LY21: 0.5 μM; 616452: 10 μM). […] The data were analyzed using the delta-delta Ct method. GAPDH was used as a control to normalize the expression of target genes.

human somatic cells [2] = test: hCiPSC colonies at the end of reprogramming after withdrawing individual chemicals from stage I or II; format: cell-based; conditions: factor removed
Protocol: as §1
In several experiments, to testing the reprogramming efficiency after removing each small molecules, the indicated small molecules were removed from the cocktails. The concentration of the small molecules used to regulate the same pathway or targets were indicated as follow: GSK3 inhibitors (CHIR99021: 3-15 μM; TD114-2: 0.5-2 μM; CHIR98014: 1-3 μM; GSK3βi XV: 0.05-0.2 μM); RA pathway agonists (TTNPB: 0.5-10 μM; Ch55: 1-5 μM; AM580: 0.1-1 μM); Rock inhibitors (TZV: 2-10 μM; Y27632: 2-15 μM; Fasudil: 2-10 μM; HA1100: 2-10 μM); TGFβ inhibitors (A8301: 0.1-5 μM; SB431542: 2-50 μM; LY364947: 0.5 μM; LY21: 0.5 μM; 616452: 10 μM).
In several experiments, to testing the reprogramming efficiency after regulate each small molecules, the indicated small molecules were removed from the cocktails. The concentration of the small molecules used to targeting the same pathway or targets were indicated as follow: GSK3 inhibitors (CHIR99021: 3-15 μM; TD114-2: 0.5-2 μM; CHIR98014: 1-3 μM; GSK3βi XV: 0.05-0.2 μM); TGFβ inhibitors (A8301: 0.2-5 μM; SB431542: 2-50 μM; 616452: 10 μM); RA pathway agonists (TTNPB: 0.2-10 μM; Ch55: 1-10 μM; AM580: 0.1-1 μM); Rock inhibitors (Y27632: 2-15 μM; Fasudil: 2-10 μM; HA1100: 2-10 μM; TZV: 2-10 μM); Smoothened agonists (SAG: 0.2-2 μM; Purmorphamine: 0.5-2 μM; Hg-Ag1.5: 0.5-1 μM; Human shh: 20-200 μM); histone demethylation inhibitors (Tranylcypromine: 2-50 μM; GSK2879: 0.02-2 μM; LSD-C76: 0.2-5 μM; S2101: 0.5-5 μM; LSD-2D: 0.2-5 μM; RN-1: 0.2-5 μM); DNMT inhibitors (5-azaC: 2-15 μM; Decitabine: 0.5-10 μM; RG108: 0.5-10 μM); JNK inhibitors (JNK-in-8: 0.2-2 μM; JNK-in-5: 0.5-1 μM; JNK-in-7: 0.2-2 μM; JNK-in-12: 0.2-0.5 μM); CBP/p300 bromodomain inhibitor (SGC-CBP30: 0.5-2 μM; I-CBP112: 0.5-5 μM; GNE272: 0.5-5μM; GNE409:0.5-5μM); Menin-MLL interaction inhibitor (VTP50469: 0.5-2μM; MI3454: 0.5-2μM; WDR5-IN-4: 0.5-2μM).

[3] = tested on: fibroblast marker genes (somatic program); test: Withdrawing individual chemicals from stage I: fibroblast marker genes; format: cell-based, human; conditions: compound removed from stage I condition
Protocol: as §2

human somatic cells [4] = test: Replacement of small molecules by others targeting the same pathway; format: cell-based; conditions: for replacement of IWP-2: Wnt inhibitor; for replacement of ABT 869: receptor tyrosine kinase inhibitor
Protocol: VPA (500 μM), Tranylcypromine (10 μM), DZNep (0.05 μM), and EPZ004777 (5 μM) were included in the first 4 days. In several experiments, to testing the reprogramming efficiency after removing each small molecules, the indicated small molecules were removed from the cocktails.

SMILES: COc1ccc(CCc2nc3cc(-c4c(C)noc4C)ccc3n2C[C@H](C)N2CCOCC2)cc1Cl [SGC-CBP30, 2-[2-(3-chloro-4-methoxyphenyl)ethyl]-5-(3,5-dimethyl-4-isoxazolyl)-1-[(2S)-2-(4-morpholinyl)propyl]-1H-benzimidazole]
- reprogramming efficiency (human somatic cells [1]): can improve

SMILES: CNC1CCC(N(Cc2cccc(-c3ccncc3)c2)C(=O)c2sc3ccccc3c2Cl)CC1 (centres unmarked) [SAG]
- generation of the epithelial-like cells (human fibroblasts): can facilitate

SMILES: Cc1cccc(-c2n[nH]cc2-c2ccc3ncccc3n2)n1 [compound 616452, 2-(3-(6-Methylpyridin-2-yl)-1H-pyrazol-4-yl)-1,5-naphthyridine]
- LIN28A activation (LIN28A): severely reduced
- generation of hCiPSCs (human somatic cells [2]): greatly impaired
- downregulation of the somatic program [3]: inhibited

SMILES: Cc1ccc(F)c(NC(=O)Nc2ccc(-c3cccc4[nH]nc(N)c34)cc2)c1 [ABT869, N-[4-(3-amino-1H-indazol-4-yl)phenyl]-N′-(2-fluoro-5-methylphenyl)-urea]
- generation of the epithelial-like cells (human fibroblasts): can facilitate

SMILES: O=c1[nH]c(-c2ccc(C(F)(F)F)cc2)nc2c1CSCC2 [XAV-939, 3,5,7,8-Tetrahydro-2-[4-(trifluoromethyl)phenyl]-4H-thiopyrano[4,3-d]pyrimidin-4-one]
- replacement of IWP-2 (human somatic cells [4]): able to replace IWP-2

SMILES: CC(=O)N1CCc2c(c(Nc3ccc(-c4cnn(C)c4)cc3F)nn2[C@H]2CCOC2)C1 [GNE272]
- reprogramming efficiency (human somatic cells [1]): can improve

SMILES: Cc1cnc(-c2cnc(NCCNc3ccc(C#N)cn3)nc2-c2ccc(Cl)cc2Cl)[nH]1 [CHIR99021, 6-[[2-[[4-(2,4-Dichlorophenyl)-5-(5-methyl-1H-imidazol-2-yl)-2-pyrimidinyl]amino]ethyl]amino]-3-pyridinecarbonitrile]
- LIN28A activation (LIN28A): severely reduced
- generation of hCiPSCs (human somatic cells [2]): greatly impaired
- downregulation of the somatic program [3]: inhibited

SMILES: C/C(=C\c1ccc(C(=O)O)cc1)c1ccc2c(c1)C(C)(C)CCC2(C)C [TTNPB, 4-[(E)-2-(5,6,7,8-Tetrahydro-5,5,8,8-tetramethyl-2-naphthalenyl)-1-propenyl]benzoic acid]
- LIN28A activation (LIN28A): severely reduced
- generation of hCiPSCs (human somatic cells [2]): greatly impaired
- downregulation of the somatic program [3]: inhibited

SMILES: O=C(Nc1cccc2cccnc12)c1ccc(N2C(=O)[C@@H]3[C@H](C2=O)[C@@H]2C=C[C@H]3C2)cc1 [IWR-1]
- replacement of IWP-2 (human somatic cells [4]): able to replace IWP-2

SMILES: C[C@@H](N)[C@H]1CC[C@H](C(=O)Nc2ccncc2)CC1 [Y27632, (+)-(R)-trans-4-(1-aminoethyl)-N-(4-pyridyl)cyclohexanecarboxamide+++dihydrochloride]
- generation of the epithelial-like cells (human fibroblasts): can facilitate

SMILES: Clc1ccc(Nc2nnc(Cc3ccncc3)c3ccccc23)cc1 [Valatanib]
- replacement of ABT 869 (human somatic cells [4]): able to replace ABT 869

SMILES: CCC(=O)N1CCOc2c(cc(-c3ccc(OC)c(OC)c3)cc2OC[C@H]2CCCN(C)C2)C1 [I-CBP112]
- reprogramming efficiency (human somatic cells [1]): can improve

SMILES: Cc1cc(-c2ccc(CC(=O)Nc3ccc(-c4cccnc4)cc3)cc2)ccn1 [WNT-C59, 4-(2-Methyl-4-pyridinyl)-N-[4-(3-pyridinyl)phenyl]benzeneacetamide]
- replacement of IWP-2 (human somatic cells [4]): able to replace IWP-2

SMILES: COc1cc2ncc(-c3ccccc3)nc2cc1OC [AG1296, 6,7-Dimethoxy-3-phenylquinoxaline]
- replacement of ABT 869 (human somatic cells [4]): able to replace ABT 869
